Laboratory results published in patent US20250115569A1, “SULFONAMIDE COMPOUNDS FOR THE TREATMENT OF NEUROLOGICAL CONDITIONS” (LARIO THERAPEUTICS LIMITED, priority 2021, published 2025).

Test system: Human Cav2.3 channel
Test: Human Cav2.3 channel calcium-influx assay
Type: cell-based
Conditions: Fluo8 fluorescence, HEK-293 T-Rex/Kir2.1/Cav2.3e cells, without pluronic acid
Outline: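 HEK-293 T-Rex/Kir2.1 cells with doxycycline (0.2 μg/mL)-inducible Cav2.3e plus Cavβ4-α2δ1, loaded with Fluo8 NW in 0 mM K+ Tyrode's. Compounds (8 points, top 30 μM, half-log, 0.3% final DMSO, n=4) preincubated 3 min at RT, then depolarized with 20 mM KCl/2 mM CaCl2 (final); fluorescence read 130 s.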

| Cav2.3 (pIC50) | Structure (SMILES) |
| --- | --- |
| 5.85 | CCN(C(c1ccc(F)cc1)C(F)(F)F)S(=O)(=O)c1cncc(N2CCCC2)c1 (stereo not drawn) [Example 94, N-ethyl-5-(pyrrolidin-1-yl)-N-(2,2,2-trifluoro-1-(4-fluorophenyl)ethyl)pyridine-3-sulfonamide] |
| 5.44 | CN([C@@H](c1ccc(F)cc1)C(F)(F)F)S(=O)(=O)c1ccc(C#N)s1 [Example 7, (S)-5-cyano-N-methyl-N-(2,2,2-trifluoro-1-(4-fluorophenyl)ethyl)thiophene-2-sulfonamide] |
| 5.84 | CCN(C(c1ccc(F)cc1F)C(F)(F)F)S(=O)(=O)c1cncc(C#N)c1 (stereo not drawn) [Example 244, 5-cyano-N-(1-(2,4-difluorophenyl)-2,2,2-trifluoroethyl)-N-ethylpyridine-3-sulfonamide] |
| 7.18 | CCN([C@H](c1cccc(Cl)c1)C(F)(F)F)S(=O)(=O)c1cncc(C#N)c1 [Example 251, (R)—N-(1-(3-chlorophenyl)-2,2,2-trifluoroethyl)-5-cyano-N-ethylpyridine-3-sulfonamide] |
| 4.87 | CCN([C@@H](c1ccc(F)cc1)C(F)(F)F)S(=O)(=O)c1ccc2c(c1)COC2 [Example 37, (S)—N-ethyl-N-(2,2,2-trifluoro-1-(4-fluorophenyl)ethyl)-1,3-dihydroisobenzofuran-5-sulfonamide] |
| 5.71 | CCN([C@@H](c1cccc(Cl)c1)C(F)(F)F)S(=O)(=O)c1cncc(C#N)c1 [Example 252, (S)—N-(1-(3-chlorophenyl)-2,2,2-trifluoroethyl)-5-cyano-N-ethylpyridine-3-sulfonamide] |
| 5.44 | CCN([C@@H](c1cccc(C)c1)C(F)(F)F)S(=O)(=O)c1cncc(C#N)c1 [Example 115, (S)-5-cyano-N-ethyl-N-(2,2,2-trifluoro-1-(m-tolyl)ethyl)pyridine-3-sulfonamide] |
| 5.95 | CCN(C(c1ccccc1C)C(F)(F)F)S(=O)(=O)c1cncc(C#N)c1 (stereo not drawn) [Example 86, 5-cyano-N-ethyl-N-(2,2,2-trifluoro-1-(o-tolyl)ethyl)pyridine-3-sulfonamide] |
| 5.08 | CCN(C(c1ccccc1OC)C(F)(F)F)S(=O)(=O)c1cncc(C#N)c1 (stereo not drawn) [Example 107, 5-Cyano-N-ethyl-N-(2,2,2-trifluoro-1-(2-methoxyphenyl)ethyl)pyridine-3-sulfonamide] |
| 6.78 | CCN([C@H](c1ccc(F)cc1)C(F)(F)F)S(=O)(=O)c1ccn2cnnc2c1 [Example 138, (R)—N-ethyl-N-(2,2,2-trifluoro-1-(4-fluorophenyl)ethyl)-[1,2,4]triazolo[4,3-a]pyridine-7-sulfonamide] |
| 5.31 | CCN([C@@H](c1ccc(F)cc1)C(F)(F)F)S(=O)(=O)c1cnc(C)nc1 [Example 76, (S)—N-ethyl-2-methyl-N-(2,2,2-trifluoro-1-(4-fluorophenyl)ethyl)pyrimidine-5-sulfonamide] |
| 6.18 | CCN([C@H](c1ccc(F)cc1)C(F)(F)F)S(=O)(=O)c1ccc2nncn2n1 [Example 192, (R)—N-ethyl-N-(2,2,2-trifluoro-1-(4-fluorophenyl)ethyl)-[1,2,4]triazolo[4,3-b]pyridazine-6-sulfonamide] |
| 6.50 | CCN(C(c1ccc(F)cc1)C(F)(F)F)S(=O)(=O)c1ccn(C)c(=O)c1 (stereo not drawn) [Example 103, N-ethyl-1-methyl-2-oxo-N-(2,2,2-trifluoro-1-(4-fluorophenyl)ethyl)-1,2-dihydropyridine-4-sulfonamide] |
| 6.33 | CCN([C@H](c1ccc(F)cc1)C(F)(F)F)S(=O)(=O)c1ccc2cn[nH]c2c1 [Example 159, (R)—N-ethyl-N-(2,2,2-trifluoro-1-(4-fluorophenyl)ethyl)-1H-indazole-6-sulfonamide] |
| 5.20 | CCN([C@@H](c1ccc(F)cc1)C(F)(F)F)S(=O)(=O)C1CCOCC1 [Example 62, (S)—N-ethyl-N-(2,2,2-trifluoro-1-(4-fluorophenyl)ethyl)tetrahydro-2H-pyran-4-sulfonamide] |
| 6.33 | CCN(C(c1ccc(F)cc1)C(F)(F)F)S(=O)(=O)c1cnc(C)c(C#N)c1 (stereo not drawn) [Example 55, 5-cyano-N-ethyl-6-methyl-N-(2,2,2-trifluoro-1-(4-fluorophenyl)ethyl)pyridine-3-sulfonamide] |
| 6.69 | CCN([C@H](c1ccc(F)cc1)C(F)(F)F)S(=O)(=O)c1csc(C#N)c1 (stereo in doubt) [Example 43, 5-Cyano-N-ethyl-N-(2,2,2-trifluoro-1-(4-fluorophenyl)ethyl)thiophene-3-sulfonamide] |
| 6.85 | CN([C@H](c1ccc(C(F)(F)F)cc1)C(F)(F)F)S(=O)(=O)c1cncc(F)c1 [Example 224, (R)-5-fluoro-N-methyl-N-(2,2,2-trifluoro-1-(4-(trifluoromethyl)phenyl)ethyl)pyridine-3-sulfonamide] |

| Cav2.3 (pIC50) | Structure (SMILES) |
| --- | --- |
| 6.91 | CCN([C@H](c1ccc(F)cc1)C(F)(F)F)S(=O)(=O)c1ccc2c(c1)COC2 [Example 38, (R)—N-ethyl-N-(2,2,2-trifluoro-1-(4-fluorophenyl)ethyl)-1,3-dihydroisobenzofuran-5-sulfonamide] |
| 5.37 | CCN([C@@H](c1ccc(F)cc1)C(F)(F)F)S(=O)(=O)c1ccc(N2CCOCC2)s1 [Example 91, (S)—N-ethyl-5-morpholino-N-(2,2,2-trifluoro-1-(4-fluorophenyl)ethyl)thiophene-2-sulfonamide] |
| 7.63 | CCN([C@H](c1cccc(F)c1)C(F)(F)F)S(=O)(=O)c1cncc(C#N)c1 [Example 111, (R)-5-Cyano-N-ethyl-N-(2,2,2-trifluoro-1-(3-fluorophenyl)ethyl)pyridine-3-sulfonamide] |
| 5.87 | CCN([C@@H](c1ccc(F)c(OC)c1)C(F)(F)F)S(=O)(=O)c1cncc(C#N)c1 [Example 258, (S)-5-cyano-N-ethyl-N-(2,2,2-trifluoro-1-(4-fluoro-3-methoxyphenyl)ethyl)pyridine-3-sulfonamide] |
| 5.94 | CCN(C(c1ccc(F)cc1)C(F)(F)F)S(=O)(=O)c1cnc(C)nc1 (stereo not drawn) [Example 75, N-ethyl-2-methyl-N-(2,2,2-trifluoro-1-(4-fluorophenyl)ethyl)pyrimidine-5-sulfonamide] |
| 7.31 | CCN([C@H](c1ccc(F)c(C)c1)C(F)(F)F)S(=O)(=O)c1cncc(C#N)c1 [Example 246, (R)-5-cyano-N-ethyl-N-(2,2,2-trifluoro-1-(4-fluoro-3-methylphenyl)ethyl)pyridine-3-sulfonamide] |
| 5.22 | Cc1ccc(S(=O)(=O)N(C)C(c2ccc(F)cc2)C(F)(F)F)s1 (stereo not drawn) [Example 11, N,5-dimethyl-N-(2,2,2-trifluoro-1-(4-fluorophenyl)ethyl)thiophene-2-sulfonamide] |
| 6.06 | CCN([C@H](c1ccc(F)cc1)C(F)(F)F)S(=O)(=O)c1ccc2cnn(C)c2c1 [Example 160, (R)—N-ethyl-1-methyl-N-(2,2,2-trifluoro-1-(4-fluorophenyl)ethyl)-1H-indazole-6-sulfonamide] |
| 6.95 | CN([C@H](c1ccc(C(F)(F)F)cc1)C(F)(F)F)S(=O)(=O)c1cnc2ncccn12 [Example 214, (R)—N-methyl-N-(2,2,2-trifluoro-1-(4-(trifluoromethyl)phenyl)ethyl)imidazo[1,2-a]pyrimidine-3-sulfonamide] |
| 4.94 | CCN([C@@H](c1ccc(F)cc1)C(F)(F)F)S(=O)(=O)c1ccc(F)s1 [Example 15, (S)—N-ethyl-5-fluoro-N-(2,2,2-trifluoro-1-(4-fluorophenyl)ethyl)thiophene-2-sulfonamide] |
| 5.00 | Cc1ccc(S(=O)(=O)N(C)[C@@H](c2ccc(F)cc2)C(F)(F)F)s1 [Example 12, (S)—N,5-dimethyl-N-(2,2,2-trifluoro-1-(4-fluorophenyl)ethyl)thiophene-2-sulfonamide] |
| 7.00 | CN([C@H](c1ccc(Cl)cc1)C(F)(F)F)S(=O)(=O)c1cnc2ncccn12 [Example 230, (R)—N-(1-(4-chlorophenyl)-2,2,2-trifluoroethyl)-N-methylimidazo[1,2-a]pyrimidine-3-sulfonamide] |
| 6.53 | CCN(C(c1ccc(F)cc1)C(F)(F)F)S(=O)(=O)c1cncc(N2CCOCC2)c1 (stereo not drawn) [Example 93, N-ethyl-5-morpholino-N-(2,2,2-trifluoro-1-(4-fluorophenyl)ethyl)pyridine-3-sulfonamide] |
| 5.22 | CCN([C@@H](c1ccc(F)cc1)C(F)(F)F)S(=O)(=O)c1cncc(N2CCCC2)c1 [Example 97, (S)—N-ethyl-5-(pyrrolidin-1-yl)-N-(2,2,2-trifluoro-1-(4-fluorophenyl)ethyl)pyridine-3-sulfonamide] |
| 6.96 | CN(C(c1ccc(C(F)(F)F)c(F)c1)C(F)(F)F)S(=O)(=O)c1cncc(C#N)c1 (stereo not drawn) [Example 255, 5-cyano-N-methyl-N-(2,2,2-trifluoro-1-(3-fluoro-4-(trifluoromethyl)phenyl)ethyl)pyridine-3-sulfonamide] |
| 5.56 | CCN([C@@H](c1ccc(F)c(Cl)c1)C(F)(F)F)S(=O)(=O)c1cncc(C#N)c1 [Example 253, (S)—N-(1-(3-chloro-4-fluorophenyl)-2,2,2-trifluoroethyl)-5-cyano-N-ethylpyridine-3-sulfonamide] |
| 6.18 | CCN(C(c1ccc(F)cc1)C(F)(F)F)S(=O)(=O)c1ccc2c(c1)COCC2 (stereo not drawn) [Example 29, N-ethyl-N-(2,2,2-trifluoro-1-(4-fluorophenyl)ethyl)isochromane-7-sulfonamide] |
| 6.61 | CCN([C@H](c1ccc(F)c(OC)c1)C(F)(F)F)S(=O)(=O)c1cncc(C#N)c1 [Example 259, (R)-5-cyano-N-ethyl-N-(2,2,2-trifluoro-1-(4-fluoro-3-methoxyphenyl)ethyl)pyridine-3-sulfonamide] |
